Laboratory results published in ChEMBL document CHEMBL3769367, “Orexin Receptor Antagonists: New Therapeutic Agents for the Treatment of Insomnia” (J Med Chem, 2016).

How the values were obtained:
Orexin receptor type 2 [1] = molecular target: T1, Orexin receptor type 2 (Homo sapiens, UniProt O43614); test: Binding affinity to OX2R (unknown origin)
T1 sequence (O43614 whole entry): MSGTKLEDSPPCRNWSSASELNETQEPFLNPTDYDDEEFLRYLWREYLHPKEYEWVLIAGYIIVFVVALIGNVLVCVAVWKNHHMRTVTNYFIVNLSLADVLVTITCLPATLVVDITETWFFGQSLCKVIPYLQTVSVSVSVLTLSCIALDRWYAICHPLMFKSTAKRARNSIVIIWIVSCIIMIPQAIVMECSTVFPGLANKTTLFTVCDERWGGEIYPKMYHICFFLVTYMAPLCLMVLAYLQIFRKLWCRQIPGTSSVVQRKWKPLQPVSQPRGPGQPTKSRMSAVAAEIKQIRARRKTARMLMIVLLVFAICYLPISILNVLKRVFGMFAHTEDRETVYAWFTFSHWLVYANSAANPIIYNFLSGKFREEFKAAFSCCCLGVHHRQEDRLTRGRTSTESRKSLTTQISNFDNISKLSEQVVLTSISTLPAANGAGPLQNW

[2] = molecular target: T2, Orexin/Hypocretin receptor type 1 (Homo sapiens, UniProt O43613); test: Binding affinity to OX1R (unknown origin)
T2 sequence (O43613 whole entry): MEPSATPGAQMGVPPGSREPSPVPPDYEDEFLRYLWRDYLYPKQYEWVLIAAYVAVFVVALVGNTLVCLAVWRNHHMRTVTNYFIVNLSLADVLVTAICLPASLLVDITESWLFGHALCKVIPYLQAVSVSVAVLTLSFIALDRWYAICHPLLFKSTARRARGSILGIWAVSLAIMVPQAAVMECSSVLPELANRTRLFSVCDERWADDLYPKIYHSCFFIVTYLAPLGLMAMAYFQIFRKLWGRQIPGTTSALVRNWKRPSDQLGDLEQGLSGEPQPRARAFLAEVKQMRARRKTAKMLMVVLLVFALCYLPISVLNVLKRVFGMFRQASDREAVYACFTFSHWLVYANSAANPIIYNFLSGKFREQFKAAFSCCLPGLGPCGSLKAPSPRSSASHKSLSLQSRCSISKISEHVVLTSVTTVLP

[3] = molecular target: T2, Orexin/Hypocretin receptor type 1; test: Antagonist activity at OX1R (unknown origin)
Orexin receptor type 2 [4] = molecular target: T1, Orexin receptor type 2; test: Antagonist activity at OX2R (unknown origin)
[5] = molecular target: T2, Orexin/Hypocretin receptor type 1; test: Antagonist activity at human OX1R expressed in CHO cells assessed as inhibition of orexin-A-induced intracellular calcium release by FLIPR assay; assay type: functional, cell-based
Cytochrome P450 3A4 = Cytochrome P450 3A4 (Homo sapiens, UniProt P08684); test: Inhibition of CYP3A4 (unknown origin); assay type: ADME
Chain of Cytochrome P450 3A4 (P08684 whole entry): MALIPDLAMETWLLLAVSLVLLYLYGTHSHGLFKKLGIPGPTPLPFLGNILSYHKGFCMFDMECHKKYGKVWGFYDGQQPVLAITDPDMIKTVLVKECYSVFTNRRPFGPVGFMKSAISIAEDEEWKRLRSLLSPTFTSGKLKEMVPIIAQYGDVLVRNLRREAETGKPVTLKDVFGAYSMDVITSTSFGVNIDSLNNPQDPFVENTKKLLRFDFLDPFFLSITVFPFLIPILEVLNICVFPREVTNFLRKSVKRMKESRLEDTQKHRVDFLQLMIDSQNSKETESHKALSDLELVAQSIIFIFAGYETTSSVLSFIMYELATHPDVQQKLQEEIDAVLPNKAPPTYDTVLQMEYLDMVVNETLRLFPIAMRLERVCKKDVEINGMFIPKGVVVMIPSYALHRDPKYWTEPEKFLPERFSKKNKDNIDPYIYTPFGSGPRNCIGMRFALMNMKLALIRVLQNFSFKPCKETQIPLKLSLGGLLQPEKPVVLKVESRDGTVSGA

Orexin receptor type 2 [6] = molecular target: T1, Orexin receptor type 2; test: Antagonist activity at human OX2R expressed in CHO cells assessed as inhibition of orexin-A-induced intracellular calcium release by FLIPR assay; assay type: functional, cell-based
[7] = molecular target: T3, Orexin receptor type 2 (Homo sapiens) (UniProt O43614)
T3 sequence (whole entry): T1 sequence (O43614 whole entry)

Homo sapiens [8] = organism: Homo sapiens; test: Selectivity ratio of IC50 for OX2R (unknown origin) to IC50 for OX1R (unknown origin)
Homo sapiens [9] = organism: Homo sapiens; test: Apparent half life of the compound in human; assay type: ADME, organism-based; settings: in vivo
[10] = Oral bioavailability in human; assay type: ADME, organism-based; settings: in vivo
Homo sapiens [11] = test: Effect on sleep parameter in insomnia patient assessed as sleep efficiency at 50 mg, po by polysomnography; assay type: functional
Rattus norvegicus [12] = test: Effect on sleep parameter in Wistar rat assessed as latency to persistent REM time at 100 mg/kg, po measured over 12 hrs (reference value: 101 +/- 17 min); assay type: functional
Homo sapiens [13] = test: Effect on sleep parameter in insomnia patient assessed as total sleep time at 50 mg, po by polysomnography; assay type: functional
[14] = Tmax in human at 1 to 1000 mg administered as single dose; assay type: ADME, organism-based; settings: in vivo
Rattus norvegicus [15] = test: Effect on sleep parameter in po dosed Wistar rat by EEG analysis; assay type: functional
Rattus norvegicus [16] = test: Effect on sleep parameter in Wistar rat assessed as latency to persistent NREM time at 100 mg/kg, po measured over 12 hrs (reference value: 40 +/- 3 min); assay type: functional
Homo sapiens [17] = test: Effect on sleep parameter in insomnia patient assessed as latency to persistent sleep time at 100 mg, po by polysomnography; assay type: functional
[18] = Ratio of drug level in brain to plasma in Wistar rat; assay type: ADME, cell-free; settings: read-out: BPR
Homo sapiens [19] = test: Effect on sleep parameter in insomnia patient assessed as sleep efficiency at 400 mg, po by polysomnography; assay type: functional
[20] = Plasma protein binding in Wistar rat; assay type: ADME, cell-free; settings: read-out: PPB (converted)
Homo sapiens [21] = test: Effect on sleep parameter in insomnia patient assessed as wake after sleep onset time at 100 mg, po by polysomnography; assay type: functional
Homo sapiens [22] = test: Effect on sleep parameter in insomnia patient assessed as latency to persistent sleep time at 200 mg, po by polysomnography; assay type: functional
[23] = Oral bioavailability in Beagle dog; assay type: ADME, organism-based, Canis lupus familiaris; settings: in vivo
[24] = Ratio of drug level in CSF to plasma in Wistar rat
[25] = Half life in iv dosed Wistar rat; assay type: ADME, organism-based; settings: in vivo
Homo sapiens [26] = test: Effect on sleep parameter in insomnia patient assessed as sleep efficiency at 100 mg, po by polysomnography; assay type: functional
[27] = Oral bioavailability in Wistar rat; assay type: ADME, organism-based; settings: in vivo
Homo sapiens [28] = test: Effect on sleep parameter in insomnia patient assessed as total sleep time at 100 mg, po by polysomnography; assay type: functional
Homo sapiens [29] = test: Effect on sleep parameter in insomnia patient assessed as wake after sleep onset time at 400 mg, po by polysomnography; assay type: functional
Homo sapiens [30] = test: Effect on sleep parameter in insomnia patient assessed as total sleep time at 200 mg, po by polysomnography; assay type: functional
Homo sapiens [31] = test: Effect on sleep parameter in insomnia patient assessed as latency to persistent sleep time at 50 mg, po by polysomnography; assay type: functional
[32] = Elimination half life in human at 1 to 1000 mg administered as single dose; assay type: ADME, organism-based; settings: in vivo, read-out: beta t1/2 (converted)
Homo sapiens [33] = test: Effect on sleep parameter in insomnia patient assessed as total sleep time at 400 mg, po by polysomnography; assay type: functional
Canis familiaris [34] = test: Effect on sleep parameter in po dosed Beagle dog by EEG analysis; assay type: functional, Canis lupus familiaris
Homo sapiens [35] = test: Effect on sleep parameter in insomnia patient assessed as wake after sleep onset time at 200 mg, po by polysomnography; assay type: functional
Rattus norvegicus [36] = test: Effect on sleep parameter in Wistar rat assessed as NREM sleep duration time at 100 mg/kg, po measured over 12 hrs (reference value: 243 +/- 8 min); assay type: functional
Homo sapiens [37] = test: Effect on sleep parameter in insomnia patient assessed as latency to persistent sleep time at 400 mg, po by polysomnography; assay type: functional
Homo sapiens [38] = test: Effect on sleep parameter in insomnia patient assessed as sleep efficiency at 200 mg, po by polysomnography; assay type: functional
Rattus norvegicus [39] = test: Effect on sleep parameter in Wistar rat assessed as REM sleep duration time at 100 mg/kg, po measured over 12 hrs (reference value: 33 +/- 4 min); assay type: functional
Homo sapiens [40] = test: Effect on sleep parameter in insomnia patient assessed as wake after sleep onset time at 50 mg, po by polysomnography; assay type: functional
[41] = Half life in iv dosed rat; assay type: ADME, organism-based; settings: in vivo
[42] = Oral bioavailability in dog; assay type: ADME, organism-based, Canis lupus familiaris; settings: in vivo
Rattus norvegicus [43] = test: Effect on sleep parameter in po dosed rat by EEG analysis; assay type: functional
[44] = Clearance in iv dosed rat; assay type: ADME, organism-based; settings: in vivo
[45] = Clearance in iv dosed dog; assay type: ADME, organism-based, Canis lupus familiaris; settings: in vivo
Rattus norvegicus [46] = organism: Rattus norvegicus; test: Receptor occupancy at OX2R in rat brain assessed as drug level in plasma; assay type: functional
[47] = Half life in iv dosed dog; assay type: ADME, organism-based, Canis lupus familiaris; settings: in vivo
[48] = Ratio of drug level in CSF to plasma in rat; assay type: ADME, cell-free
[49] = molecular target: T2, Orexin/Hypocretin receptor type 1; test: Antagonist activity at human OX1R expressed in CHO cell membranes assessed as inhibition of orexin-A-induced intracellular calcium release after 120 mins; assay type: functional, cell-based
[50] = Plasma protein binding in human; assay type: ADME, cell-free; settings: read-out: PPB (converted)
[51] = Ratio of drug level in brain to plasma in rat; assay type: ADME, cell-free; settings: read-out: BPR
[52] = Plasma protein binding in rat; assay type: ADME, cell-free; settings: read-out: PPB (converted)
Orexin receptor type 2 [53] = molecular target: T1, Orexin receptor type 2; test: Antagonist activity at human OX2R expressed in CHO cell membranes assessed as inhibition of orexin-A-induced intracellular calcium release after 120 mins; assay type: functional, cell-based
Canis familiaris [54] = test: Effect on sleep parameter in po dosed dog by EEG analysis; assay type: functional, Canis lupus familiaris
[55] = Oral bioavailability in rat; assay type: ADME, organism-based; settings: in vivo
[56] = Plasma protein binding in dog; assay type: ADME, cell-free, Canis lupus familiaris; settings: read-out: PPB (converted)

Cc1ccc(-n2nccn2)c(C(=O)N2CCCC(COc3ccc(F)c(C)c3)C2)c1 (stereo not given)
Ki (Orexin receptor type 2 [1]): 0.016 µM
Ki [2]: 0.015 µM

COc1cccc(OC)c1C(=O)N1CCCN(c2nc3ccc(Cl)cc3s2)CC1
IC50 [3]: 0.63 µM

Cc1nc(C(=O)N2CCCC[C@H]2CCOc2ccc(F)cc2)c(-c2ccccc2)s1
IC50 (Orexin receptor type 2 [4]): 0.014 µM
IC50 [3]: 0.012 µM

CSc1cccc(NC(=O)[C@@H]2CCCN2S(=O)(=O)c2ccc(Br)s2)c1
IC50 [5]: 0.021 µM

COc1ccc(S(=O)(=O)N2CCC[C@H]2C(=O)Nc2cccc(SC)c2)cc1
IC50 (Cytochrome P450 3A4): 8 µM
IC50 (Orexin receptor type 2 [6]): 0.007 µM
IC50 [5]: 0.031 µM

CCN(CCN(C)c1nc2ccccc2o1)C(=O)c1cc(C)ccc1-n1nccn1
IC50 (Orexin receptor type 2 [4]): 0.018 µM
IC50 [3]: 0.013 µM

Cc1nc(C(=O)N2CCCCC2CCOc2ccc(F)cc2)c(-c2ccccc2)s1 (stereo not given)
Ki (Orexin receptor type 2 [1]): 0.004 µM
Ki [2]: 0.008 µM

COc1ccc(CC2c3cc(OC(C)C)c(OC)cc3CCN2CC(=O)NCc2ccccc2)cc1OC (stereo not given)
IC50 (Orexin receptor type 2 [4]): > 10 µM
IC50 [3]: 0.017 µM

CC1(C)OC[C@H](NC(=O)Nc2ccc(Br)cc2Br)[C@H](c2ccccc2)O1
pKb [7]: 8.3

COc1ccc(CC2c3cc(OC)c(OC)cc3CCN2CC(=O)NCc2ccccc2)cc1OC (stereo not given)
Ratio IC50 (Homo sapiens [8]): 68

Cc1ccc(-n2nccn2)c(C(=O)N2C[C@@H](COc3ccc(F)c(C)c3)CC[C@H]2C)c1 (racemic)
Ki (Orexin receptor type 2 [1]): 0.022 µM
Ki [2]: 0.034 µM

Cc1ccc(-n2nccn2)c(C(=O)N2C[C@H](COc3ccc(F)c(C)c3)CC[C@H]2C)c1 (racemic)
Ki (Orexin receptor type 2 [1]): 0.0001 µM
Ki [2]: 0.0003 µM

Cc1nc(C(=O)N2CCCC[C@H]2CNC(=O)c2cccc3occc23)c(-c2ccc(F)cc2)s1 (stereo in doubt; form 2) [SB-649868]
t1/2(app) (Homo sapiens [9]): 39 h

CNC(=O)[C@@H](c1ccccc1)N1CCc2cc(OC)c(OC)cc2[C@@H]1CCc1ccc(C(F)(F)F)cc1 [ALMOREXANT]
bioavailability [10]: 11%
Activity (Homo sapiens [11]): 3.3%
Time (Rattus norvegicus [12]): 91 min
Time (Homo sapiens [13]): 15.8 min
Tmax [14]: 0.7 h
Activity (Rattus norvegicus [15]): 30 mg/kg
Time (Rattus norvegicus [16]): 30 min
Time (Homo sapiens [17]): -10.4 min
Kp [18]: 0.3
Activity (Homo sapiens [19]): 14.4%
fraction unbound [20]: 0.01
Time (Homo sapiens [21]): -20.1 min
Time (Homo sapiens [22]): -10.4 min
bioavailability [23]: 18%
Kp [24]: 0.002
half-life [25]: 8 h
Activity (Homo sapiens [26]): 4.6%
bioavailability [27]: 8%
Time (Homo sapiens [28]): 21.4 min
Time (Homo sapiens [29]): -54 min
Time (Homo sapiens [30]): 39.3 min
Time (Homo sapiens [31]): -5.7 min
half-life [32]: 13.1 h
Time (Homo sapiens [33]): 69.7 min
Activity (Canis familiaris [34]): 100 mg/kg
Time (Homo sapiens [35]): -34.3 min
Time (Rattus norvegicus [36]): 286 min
Time (Homo sapiens [37]): -18 min
Activity (Homo sapiens [38]): 8.2%
Time (Rattus norvegicus [39]): 50 min
Time (Homo sapiens [40]): -6.7 min

Cc1ccc(-c2ncccn2)c(C(=O)N2C[C@H](COc3ccc(F)cn3)CC[C@H]2C)c1 [FILOREXANT]
half-life [41]: 0.5 h
bioavailability [42]: 26%
Activity (Rattus norvegicus [43]): 3 mg/kg
clearance [44]: 4.02 L/h/kg
clearance [45]: 0.348 L/h/kg
Occ90 (Rattus norvegicus [46]): 142 nM
half-life [47]: 2.3 h
Kp [48]: 0.04
IC50 [49]: 0.011 µM
fraction unbound [50]: 0.025
Kp [51]: 1.1
fraction unbound [52]: 0.05
IC50 (Orexin receptor type 2 [53]): 0.011 µM
Activity (Canis familiaris [54]): 0.25 mg/kg
bioavailability [55]: 25%
fraction unbound [56]: 0.06
Ki [2]: 0.0022 µM
